In patent US9073892B2, “Indazolyl triazol derivatives” (Merck Serono S.A., priority 2010, dated 2015):

How the values were obtained:
[1] = test system: T1, IRAK1/4 human; experiment: IRAK1/4 phosphorylation IC50 (enzymatic assay, table 2); type: biochemical; conditions: human IRAK1/4 phosphorylation
T1 construct: fused on or other part: His tag and TEV cleavage site at the N-terminus
How it was run: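 The IC50 values describe inhibition of His-TEV-tagged human IRAK-1 or IRAK-4. Each enzyme was incubated with ATP and compounds in DMSO at 20 µM to 1 nM for 2 or 3 hours, with STK1-biotin peptide included for IRAK-4.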

[2] = test system: IL1β-induced IL8 release in THP1 cells; experiment: IRAK IL8 secretion functional assay; type: cell-based; conditions: Homo sapiens; THP-1 cells, IL1β 100 ng/ml overnight, IL8 by HTRF; read-out: IC50, Secretion THP-1/IL-β induced IL8 release
Text: IRAK IL8 Secretion Functional Assay:
THP1 cells are human monocytes derived from acute monocytic leukemia. IL1β receptor expressed on the surface membrane of THP1 cells induced IL8 release. IRAKs are kinase signaling downstream of TLRs and TNF, IL-18, IL-33 and IL-1 receptors.
In cells, IRAK4 is upstream of IRAK1.
The Human IL8 Kit, provided by CysBio International based in Bagnols/Cèze FR, allows for the quantitative determination of IL-8 in cell-culture supernatants.
Anti-cytokine IL8 antibodies are respectively labeled with europium Cryptate and XL665. Upon their binding to IL-8 molecules, the two antibodies come into close proximity, allowing FRET (Fluorescence Resonance Energy Transfer) to occur. This FRET increases proportionally to IL-8 concentrations and be converted in IL8 pg amounts.
THP-1 cells are seeded on Day 1 in 384 well plate with RPMI 1640 at a density of 30 000 cells/well. Compounds 4×/2% DMSO (range of concentrations from 20 μM to 1 nM) and IL1β 4× at 100 ng/ml final are added to cells overnight at 37° C., 5% CO2. Measurement of IL-8 secretion is done by mixing on Day2 10 μl of supernatant with 10 μl of a mix solution of europium Cryptate and XL665 (v:v) as described by supplier.
HTRF (homogeneous time resolved fluorescence) signal is measured after 3 hours incubation time at 30° C. with a BMG Pherastar reader or equivalent.

| SMILES | IC50 [1] [µM] | IC50 [2] [µM] |
| --- | --- | --- |
| c1cc(CCN2CCOCC2)cc(-n2cc(-c3n[nH]c4ccccc34)nn2)c1 [Example 80, 3-{1-[3-(2-morpholin-4-ylethyl)phenyl]-1H-1,2,3-triazol-4-yl}-1H-indazole] | 1 to 5 | 1 to 5 |
| O=C(c1ccc(-n2cc(-c3n[nH]c4ccccc34)nn2)cc1F)N1CCOCC1 [Example 81, 3-{1-[3-fluoro-4-(morpholin-4-ylcarbonyl)phenyl]-1H-1,2,3-triazol-4-yl}-1H-indazole] | 0.1 to 1 | 0.1 to 1 |
| O=C(Cc1cccc(-n2cc(-c3n[nH]c4ccccc34)nn2)c1)N1CCCC1 [Example 82, 3-{1-[3-(2-oxo-2-pyrrolidin-1-ylethyl)phenyl]-1H-1,2,3-triazol-4-yl}-1H-indazole] | 1 to 5 | 1 to 5 |
| c1cc(CCN2CCCC2)cc(-n2cc(-c3n[nH]c4ccccc34)nn2)c1 [Example 83, 3-{1-[3-(2-pyrrolidin-1-ylethyl)phenyl]-1H-1,2,3-triazol-4-yl}-1H-indazole] | 1 to 5 | 0.1 to 1 |
| O=C(c1ccc(-n2cc(-c3n[nH]c4ccc(C5CCNCC5)cc34)nn2)cc1)N1CCOCC1 [Example 84, 3-{1-[4-(morpholin-4-ylcarbonyl)phenyl]-1H-1,2,3-triazol-4-yl}-5-piperidin-4-yl-1H-indazole] | < 0.1 | 1 to 5 |
| c1cc(CCCN2CCOCC2)cc(-n2cc(-c3n[nH]c4ccccc34)nn2)c1 [Example 86, 3-{1-[3-(3-morpholin-4-ylpropyl)phenyl]-1H-1,2,3-triazol-4-yl}-1H-indazole] | 1 to 5 | 1 to 5 |
| c1cc(CCCN2CCCC2)cc(-n2cc(-c3n[nH]c4ccccc34)nn2)c1 [Example 88, 3-{1-[3-(3-pyrrolidin-1-ylpropyl)phenyl]-1H-1,2,3-triazol-4-yl}-1H-indazole] | 1 to 5 | 0.1 to 1 |
| O=C(c1ccc(-n2cc(-c3n[nH]c4ccccc34)nn2)cc1Cl)N1CCOCC1 [Example 89, 3-{1-[3-chloro-4-(morpholin-4-ylcarbonyl)phenyl]-1H-1,2,3-triazol-4-yl}-1H-indazole] | 0.1 to 1 | 1 to 5 |
| CN(C)CC1CCN(C(=O)c2ccc(-n3cc(-c4n[nH]c5ccccc45)nn3)cc2)CC1 [Example 91, 1-(1-{4-[4(1H-indazol-3-yl)-1H-1,2,3-triazol-1-yl]benzoyl}piperidin-4-yl)-N,N-dimethylmethanamine] | 0.1 to 1 | 0.1 to 1 |
| CN(C)CCC1CCCCN1C(=O)c1ccc(-n2cc(-c3n[nH]c4ccccc34)nn2)cc1 (centres unmarked) [Example 92] | 0.1 to 1 | 0.1 to 1 |
| O=C(c1ccc(-n2cc(-c3n[nH]c4ccc(CO)cc34)nn2)cc1)N1CCOCC1 [Example 93, (3-{1-[4(morpholin-4-ylcarbonyl)phenyl]-1H-1,2,3-triazol-4-yl}-1H-indazol-5-yl)methanol] | 0.1 to 1 | 1 to 5 |
| O=C(c1ccc(-n2cc(-c3n[nH]c4ccc(Cn5nc(-c6cc(F)cc(F)c6)ccc5=O)cc34)nn2)cc1)N1CCOCC1 [Example 94, 6-(3,5-difluorophenyl)-2-[(3-{1-[4-(morpholin-4-ylcarbonyl)phenyl]-1H-1,2,3-triazol-4-yl}-1H-indazol-5-yl)methyl]pyridazin-3(2H)-one] | < 0.1 | 0.1 to 1 |
| O=C(c1ccc(-n2cc(-c3n[nH]c4ccc(Cn5ncccc5=O)cc34)nn2)cc1)N1CCOCC1 [Example 95, 2-[(3-{1-[4-(morpholin-4-ylcarbonyl)phenyl]-1H-1,2,3-triazol-4-yl}-1H-indazol-5-yl)methyl]pyridazin-3(2H)-one] | 0.1 to 1 | 1 to 5 |
| O=C(c1ccc(-n2cc(-c3n[nH]c4ccccc34)nn2)cc1)N1CCC[C@@H](O)C1 [Example 96, (3R)-1-{4-[4-(1H-indazol-3-yl)-1H-1,2,3-triazol-1-yl]benzoyl}piperidin-3-ol] | 0.1 to 1 | 0.1 to 1 |
| O=C(c1ccc(-n2cc(-c3n[nH]c4ccccc34)nn2)cc1)N1CCC[C@H](O)C1 [Example 97, (3S)-1-{4-[4-(1H-indazol-3-yl)-1H-1,2,3-triazol-1-yl]benzoyl}piperidin-3-ol] | 0.1 to 1 | 0.1 to 1 |
| CN1CCC(n2cc(NC(=O)c3ccc(-n4cc(-c5n[nH]c6ccccc56)nn4)cc3)cn2)CC1 [Example 98, 4-[4-(1H-indazol-3-yl)-1H-1,2,3-triazol-1-yl]-N-[1-(1-methylpiperidin-4-yl)-1H-pyrazol-4-yl]benzamide] | < 0.1 | 0.1 to 1 |

| SMILES | IC50 [1] [µM] | IC50 [2] [µM] |
| --- | --- | --- |
| O=C(c1ccc(-n2cc(-c3n[nH]c4ccccc34)nn2)cc1)N1CCC[C@H]1CO [Example 99] | 0.1 to 1 | 0.1 to 1 |
| O=C(c1ccc(-n2cc(-c3n[nH]c4ccccc34)nn2)cc1)N1CCCCC1CO (centres unmarked) [Example 100, (1-{4-[4-(1H-indazol-3-yl)-1H-1,2,3-triazol-1-yl]benzoyl}piperidin-2-yl)methanol] | 0.1 to 1 | 0.1 to 1 |
| O=C(c1ccc(-n2cc(-c3n[nH]c4ccccc34)nn2)cc1C(F)(F)F)N1CCOCC1 [Example 101, 3-{1-[4-(morpholin-4-ylcarbonyl)-3-(trifluoromethyl)phenyl]-1H-1,2,3-triazol-4-yl}-1H-indazole] | 0.1 to 1 | 1 to 5 |
| O=C(c1ccc(-n2cc(-c3n[nH]c4ccc(Cn5nc(-c6ccncc6)ccc5=O)cc34)nn2)cc1)N1CCOCC1 [Example 103, 2-[(3-{1-[4-(morpholin-4-ylcarbonyl)phenyl]-1H-1,2,3-triazol-4-yl}-1H-indazol-5-yl)methyl]-6-pyridin-4-ylpyridazin-3(2H)-one] | < 0.1 | 0.1 to 1 |
| CN1CC=C(c2ccc3[nH]nc(-c4cn(-c5ccc(C(=O)N6CCOCC6)cc5)nn4)c3c2)CC1 [Example 104, 5-(1-methyl-1,2,3,6-tetrahydropyridin-4-yl)-3-{1-[4-(morpholin-4-ylcarbonyl)phenyl]-1H-1,2,3-triazol-4-yl}-1H-indazole] | < 0.1 | 0.1 to 1 |
| CC(=O)N1CCC(c2ccc3[nH]nc(-c4cn(-c5ccc(C(=O)N6CCOCC6)cc5)nn4)c3c2)CC1 [Example 105, 5-(1-acetylpiperidin-4-yl)-3-{1-[4-(morpholin-4-ylcarbonyl)phenyl]-1H-1,2,3-triazol-4-yl}-1H-indazole] | 0.1 to 1 | 1 to 5 |
| O=C(c1ccc(-n2cc(-c3n[nH]c4ccc(C5=CCN(Cc6ccccc6)CC5)cc34)nn2)cc1)N1CCOCC1 [Example 106, 5-(1-benzyl-1,2,3,6-tetrahydropyridin-4-yl)-3-{1-[4-(morpholin-4-ylcarbonyl)phenyl]-1H-1,2,3-triazol-4-yl}-1H-indazole] | 0.1 to 1 | 1 to 5 |
| COC[C@@H]1CCCN1C(=O)c1ccc(-n2cc(-c3n[nH]c4ccccc34)nn2)cc1 [Example 108, 3-[1-(4-{[(2S)-2-(methoxymethyl)pyrrolidin-1-yl]carbonyl}phenyl)-1H-1,2,3-triazol-4-yl]-1H-indazole] | < 0.1 | 0.1 to 1 |
| COC1CCN(C(=O)c2ccc(-n3cc(-c4n[nH]c5ccccc45)nn3)cc2)CC1 [Example 109, 3-(1-{4-[(4-methoxypiperidin-1-yl)carbonyl]phenyl}-1H-1,2,3-triazol-4-yl)-1H-indazole] | 0.1 to 1 | 0.1 to 1 |
| Cc1ccc(=O)n(Cc2ccc3[nH]nc(-c4cn(-c5ccc(C(=O)N6CCOCC6)cc5)nn4)c3c2)n1 [Example 110] | 0.1 to 1 | 1 to 5 |
| O=C(Nc1cnn(CCN2CCOCC2)c1)c1ccc(-n2cc(-c3n[nH]c4ccccc34)nn2)cc1 [Example 111, 4-[4-(1H-indazol-3-yl)-1H-1,2,3-triazol-1-yl]-N-[1-(2-morpholin-4-ylethyl)-1H-pyrazol-4-yl]benzamide] | 0.1 to 1 | 0.1 to 1 |
| CN1CCC(n2cc(NC(=O)c3ccc(-n4cc(-c5n[nH]c6ccccc56)nn4)cc3)cn2)C1 (centres unmarked) [Example 112, 4-[4-(1H-indazol-3-yl)-1H-1,2,3-triazol-1-yl]-N-[1-(1-methylpyrrolidin-3-yl)-1H-pyrazol-4-yl]benzamide] | < 0.1 | 0.1 to 1 |
| COCCC1CCCN(C(=O)c2ccc(-n3cc(-c4n[nH]c5ccccc45)nn3)cc2)C1 (centres unmarked) [Example 113] | 0.1 to 1 | 0.1 to 1 |
| O=C(c1ccc(-n2cc(-c3n[nH]c4ccccc34)nn2)cc1)N1CC(O)C1 [Example 114, 1-{4-[4-(1H-indazol-3-yl)-1H-1,2,3-triazol-1-yl]benzoyl}azetidin-3-ol] | 0.1 to 1 | 0.1 to 1 |
| Cc1nccn1CC1CCCN(C(=O)c2ccc(-n3cc(-c4n[nH]c5ccccc45)nn3)cc2)C1 (centres unmarked) [Example 115, 3-{1-[4-({3-[(2-methyl-1H-imidazol-1-yl)methyl]piperidin-1-yl}carbonyl)phenyl]-1H-1,2,3-triazol-4-yl}-1H-indazole] | 0.1 to 1 | 0.1 to 1 |
